Measurements as given in patent US20210355166A1, “[…] METHODS OF USE THEREOF” (priority 2018, published 2021).
“Also recorded” adds a separate entry of the source. Where two headings read alike, the source gives them in different places. Marks after values point to notes of the source that are not given here. Non-standard residues stand in square brackets, D forms with d. No end group written: not given here. *: point of attachment. β‑Lac = OC[C@H]1O[C@@H](O[C@H]2[C@H](O)[C@@H](O)[C@H](*)O[C@@H]2CO)[C@H](O)[C@@H](O)[C@H]1O; Dmt = Cc1cc(O)cc(C)c1C[C@H](N)C(=O)O

What was measured:
MOPr [1] = molecular target: T1, MOPr (Mus musculus, UniProt P42866); assay: Ser375 phosphorylation assay in AtT20 cells expressing MOPr; type: cell-based; set-up: expressed in transfected cells; conditions: met-enkephalin defined as 100%
Procedure: Cells were serum starved for at least 30 min and then incubated in the absence or presence of the indicated ligand for 5-10 min at 37° C. Phosphorylation was terminated by fixing the cells with −30° C. methanol followed by 10 min incubation on ice. Cells were washed three times with phosphate buffered saline (PBS) and then heated in sodium citrate buffer (10 mM, 0.05% Tween 20, pH.6) for 20 min at 95° C. […] Imaging was performed as detailed below.
(§1) Imaging parameters including laser intensity, photomultiplier tube (PMT) voltage and offset remained constant for each experiment. Mean fluorescence intensity was measured using ImageJ software to calculate mean gray value of an area defined […] a single cell. Each experiment was normalized to the mean of untreated cells as 0% and the mean of cells treated with saturating concentrations of Met-enk (30 μM) as 100%.

MOPr [2] = molecular target: T1, MOPr; assay: MOPr internalisation (endocytosis assay) in AtT20 cells; type: cell-based; set-up: expressed in transfected cells
Procedure: as §1
MOPr internalisation was assessed immunocytochemically after 30 minutes of agonist treatment (FIGS. 8, 9). […] Endocytosis assay: Receptor internalization was quantified using a ratiometric staining of membrane and internalized receptors. […] Cells were then incubated for an additional 30 min with indicated agonist at 37° C. To unbind the M1 anti-FLAG antibody from the surface receptors, cells were quickly washed three times with ice-cold PBS lacking Mg^2+ and Ca^2+ and supplemented with 0.04% EDTA (pH 7.4).

MOPr [3] = molecular target: T1, MOPr; assay: GIRK conductance in MOPr expressing AtT20 cells without fractional inactivation of MOPr; type: cell-based; set-up: expressed in transfected cells
Procedure: The recording electrodes were first front filled with this internal solution and then backfilled with the same solution containing 200 μg/ml amphotericin B (in 0.8% DMSO). […] Liquid junction potential was calculated to be +16 mV and was adjusted before the start of each recording. […] Currents were sampled at 100 Hz, low pass filtered at 50 Hz and recorded on hard disk for later analyses. IGIRK was recorded using a 200 ms voltage step to −120 mV from a holding potential of −60 mV delivered every 2 s. Drugs were perfused directly onto cells using a ValveLink 8.2 pressurized pinch valve perfusion system (AutoMate Scientific, USA).

MOPr [4] = molecular target: T1, MOPr; type: cell-based; set-up: expressed in transfected cells; conditions: for internalisation signal in GRK2 positive cells: GRK2-YFP and β-arrestin 2-HA overexpressed
Procedure: Endocytosis assay: Receptor internalization was quantified using a ratiometric staining of membrane and internalized receptors. […] Cells were then incubated for an additional 30 min with indicated agonist at 37° C. To unbind the M1 anti-FLAG antibody from the surface receptors, cells were quickly washed three times with ice-cold PBS lacking Mg^2+ and Ca^2+ and supplemented with 0.04% EDTA (pH 7.4).
Only YFP positive cells were analyzed for internalization.
See also FIGS. 11C and 11D.

MOPr [5] = molecular target: T1, MOPr; type: cell-based; set-up: expressed in transfected cells; host or cells: AtT20 cells, transient co-transfection
Procedure: Arrestin recruitment: Agonist-induced recruitment of β-arrestin2 to MOPr was examined using a BRET-based approach. AtT20 cells were plated in 10-cm dishes and co-transfected with MOPr C-terminally tagged with Rluc8 (MOPr-RLuc8), β-arrestin2-YFP and GRK2 (1 μg, 4 μg and 2 μg, respectively). 24 h after transfection wells were replated into white opaque 96-well plates (CulturPlate, PerkinElmer) and allowed to adhere overnight. Cells were washed with Hank's Balanced Salt Solution (HBSS) and equilibrated in HBSS for 30 min at 37° C. prior to the experiment. Coelenterazine h was added to a final concentration of 5 μM 10 min before dual fluorescence/luminescence measurement in a LUMIstar Omega plate reader (BMG LabTech). Baseline BRET was measured for 30 sec prior to addition of the indicated ligand. The BRET signal was calculated as the ratio of light emitted at 530 nm by YFP over the light emitted at 430 nm by Renilla luciferase 8 (RLuc8).

C57BL/6 mice = assay: Nociception (analgesia) testing on 54 C hotplate; type: in vivo, mouse; conditions: for analgesic activity after systemic administration: 54° C. hotplate
Procedure: Experiments were performed under the guidelines of the Australian code of practice for the care and use of animals for scientific purposes (National Health and Medical Research Council, Australia, 7th Edition). Great care was taken to minimise animal suffering during these experiments and to reduce the number of animals used. […] Food and water was available ad libitum. Mice were given at least 7 days to habituate to housing facilities prior to handling, and handled by the experimenter for 4 days prior to testing. […] The experimenter was blind to all drugs tested. Animals were tested on a 54° C. hotplate, with a maximum cut-off time of 20 seconds to prevent tissue damage. Endpoints were hindpaw lick, hindpaw flutter or jump. […] The percentage of maximal possible effects (% MPE) were calculated as follows: % MPE=(test latency−baseline latency)/(cutoff latency−baseline latency)×100%. The cut-off latency was 20 seconds. Significant differences were assessed with a two-way ANOVA and Tukey's post hoc multiple comparisons test. […] Doses were transformed to the logarithm of μmol/kg. A two-way ANOVA was used to compare data at equimolar doses.

[6] = molecular target: FLAG tagged mouse MOPr (mMOPr) stably expressed in AtT20 cells (mouse) (UniProt P42866); assay: cell-based or functional assay
[7] = molecular target: MOPr C-terminally tagged with Rluc8 (MOPr-RLuc8), transfected in AtT20 cells; assay: cell-based or functional assay
MOPr [8] = molecular target: T2, MOPr (Rattus norvegicus, UniProt P33535); assay: Patch-clamp recordings of GIRK currents in rat locus coeruleus (LC) neurons; type: cell-based
T2 construct: which natively express MOPr but not DOPr or KOPr; from tissue; host or cells: brain slices with locus coeruleus neurons, male Sprague Dawley rats
Procedure: Briefly, rats were anesthetized with isoflurane and decapitated. The brain was dissected and mounted in a vibratome chamber (Leica biosystem, VT100, Wetzlar, Germany) in order to prepare horizontal brain slices (280 μm). […] Slices were incubated in warm oxygenated ACSF for at least 30 min before recording. Slices were transferred to the recording chamber while warm ACSF (34° C.) was superfused at a rate of ˜2 mL/min. Whole-cell voltage-clamp recordings were acquired from LC neurons with Multiclamp 700B amplifier (Molecular Devices, CA, USA) at holding potential of −60 mV. […] Continuous current recordings were collected in chart mode at 500 Hz and filtered at 20-50 Hz using Axograph X (Axograph Scientific, Sydney, Australia). Series resistance monitored throughout the experiments and remained <15 MΩ; otherwise the data were discarded. Outward current was measured as the difference between baseline current and peak current of drug application.

[9] = molecular target: human µ-opioid receptor (hMOPr), human recombinant MOPr expressed in HEK-293 cells (human) (UniProt P35372); assay: cell-based or functional assay
mouse MOPr (mMOPr) = molecular target: T3, mouse MOPr (mMOPr) (Mus musculus, UniProt P42866); type: cell-based; conditions: for GIRK (80% knockdown) log(tau/KA): operational model fit
T3 construct: expressed in transfected cells

[10] = molecular target: T4, human µ-opioid receptor (hMOPr), human recombinant MOPr expressed in HEK-293 cells (human, UniProt P35372 1-400); assay: competition with [3H]DAMGO (0.5 nM), membranes with human recombinant MOPr (HEK-293), filtration and scintillation counting
T4 construct: whole, on cells; the cAMP assay used whole HEK cells expressing hMOPr
Procedure: (§2) The specific ligand binding to the receptors is defined as the difference between the total binding and the nonspecific binding determined in the presence of an excess of an unlabelled opioid ligand (naloxone, 10 μM). The results are expressed as a percent of control specific binding ((measured specific binding/control specific binding)×100) obtained in the presence of unlabelled peptides of interest. The IC₅₀ values (concentration causing a half-maximal inhibition of control specific binding) and Hill coefficients (nH) were determined by non-linear regression analysis of the competition curves generated with mean replicate values using Hill equation curve fitting (Y=D+[(A−D)/(1+(C/C₅₀nH)], where Y=specific binding, D=minimum specific binding, A=maximum specific binding, C=compound concentration, C₅₀=IC₅₀, and nH=slope factor).

[11] = molecular target: T4, human µ-opioid receptor (hMOPr), human …; assay: competition with [3H]DAMGO at hMOPr
Procedure: as §2

[12] = molecular target: MOPr natively expressed by rat locus coeruleus (LC) neurons (rat, UniProt P33535 1-398); assay: cell-based or functional assay
[13] = molecular target: T4, human µ-opioid receptor (hMOPr), human …; assay: cell-based or functional assay

T4 sequence (P35372 whole entry): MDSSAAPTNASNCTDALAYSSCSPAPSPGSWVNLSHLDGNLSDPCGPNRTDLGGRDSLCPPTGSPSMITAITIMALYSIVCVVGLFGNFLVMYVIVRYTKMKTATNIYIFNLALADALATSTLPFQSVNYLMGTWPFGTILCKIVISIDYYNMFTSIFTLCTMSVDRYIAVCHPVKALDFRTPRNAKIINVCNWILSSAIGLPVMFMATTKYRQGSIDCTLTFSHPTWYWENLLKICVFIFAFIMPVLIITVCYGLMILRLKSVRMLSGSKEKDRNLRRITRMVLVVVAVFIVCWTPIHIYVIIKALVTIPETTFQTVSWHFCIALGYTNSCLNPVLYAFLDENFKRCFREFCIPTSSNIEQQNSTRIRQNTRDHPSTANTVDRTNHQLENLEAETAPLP
T1 sequence (P42866 whole entry): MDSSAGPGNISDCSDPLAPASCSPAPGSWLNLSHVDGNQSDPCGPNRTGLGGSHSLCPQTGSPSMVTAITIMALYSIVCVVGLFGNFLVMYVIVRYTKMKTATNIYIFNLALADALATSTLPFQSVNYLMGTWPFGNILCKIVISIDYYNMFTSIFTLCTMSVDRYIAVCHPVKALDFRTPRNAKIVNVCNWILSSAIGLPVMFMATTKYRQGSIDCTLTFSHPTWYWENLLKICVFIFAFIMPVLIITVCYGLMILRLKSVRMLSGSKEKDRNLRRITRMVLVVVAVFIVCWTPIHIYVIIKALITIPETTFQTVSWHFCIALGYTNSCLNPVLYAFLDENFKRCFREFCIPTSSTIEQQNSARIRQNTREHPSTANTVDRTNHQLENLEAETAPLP
T3 sequence (P42866 whole entry): as above
Sequence of FLAG tagged mouse MOPr (mMOPr) stably expressed in AtT20 cells (mouse) (P42866 whole entry): as above
Sequence of MOPr natively expressed by rat locus coeruleus (LC) neurons (P33535 whole entry): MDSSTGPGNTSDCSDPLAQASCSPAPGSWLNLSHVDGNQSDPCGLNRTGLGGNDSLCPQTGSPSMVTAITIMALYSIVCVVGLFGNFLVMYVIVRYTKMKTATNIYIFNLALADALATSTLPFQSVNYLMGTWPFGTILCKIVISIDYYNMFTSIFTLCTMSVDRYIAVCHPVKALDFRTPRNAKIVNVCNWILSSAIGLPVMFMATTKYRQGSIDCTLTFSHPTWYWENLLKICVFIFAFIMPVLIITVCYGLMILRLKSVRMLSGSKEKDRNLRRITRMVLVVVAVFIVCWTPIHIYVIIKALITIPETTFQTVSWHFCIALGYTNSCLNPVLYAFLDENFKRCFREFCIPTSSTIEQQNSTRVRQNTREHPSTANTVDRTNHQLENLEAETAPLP
Sequence of human µ-opioid receptor (hMOPr), human recombinant MOPr expressed in HEK-293 cells (human) (P35372 whole entry): as the sequence (P35372 whole entry) above
T2 sequence (P33535 whole entry): as the sequence (P33535 whole entry) above

met-enkephalin
Phosphorylation Emax (MOPr [1]): 100* %
Internalisation Emax (MOPr [2]): 100* %
MOPr internalisation (MOPr [2]): robust internalisation

2,6-dimethyl-L-tyrosine-D-Val-L-Val-D-Phe-L-Ser(β-Lac)-NH2 ([Dmt][dV]V[dF]S(β‑Lac)-NH2; N-terminus assumed; SMILES Cc1cc(O)cc(C)c1C[C@H](N)C(=O)N[C@@H](C(=O)N[C@H](C(=O)N[C@H](Cc1ccccc1)C(=O)N[C@@H](CO[C@@H]1O[C@H](CO)[C@@H](O[C@@H]2O[C@H](CO)[C@H](O)[C@H](O)[C@H]2O)[C@H](O)[C@H]1O)C(N)=O)C(C)C)C(C)C) [peptide 3g]
agonist action in AtT20 cells (MOPr [3]): potent partial opioid agonist
potency compared with bilorphin in AtT20 cells (MOPr [3]): small loss of potency
internalization compared to bilorphin (MOPr [4]; 30 μM, after GRK2 overexpression): modest
β-arrestin recruitment compared to bilorphin (MOPr [5]): modest
analgesic activity after systemic administration (C57BL/6 mice; s.c., listed as Bilactorphin): dose-dependent analgesia; also recorded: equipotent with morphine
analgesic activity after systemic administration (C57BL/6 mice; s.c., listed as bilactorphin): potent analgesic
peak effect after i.v (C57BL/6 mice; hotplate, i.v): 88.9±11.8 % MPE
activity after oral administration (C57BL/6 mice; hotplate, oral gavage): active
ED50, hotplate, systemic administration s.c. (C57BL/6 mice; s.c.): 34 µmol/kg

endomorphin-2 (peptide)
GIRK (80% knockdown): Emax [6]: 0.64
GIRK (80% knockdown): log(EC50) [6]: -6.9
GIRK (80% knockdown): log(tau/KA) [6]: 7.5
Internalisation of MOPr: Emax [6]: 94%
Internalisation of MOPr: log(EC50) [6]: -6.4
Internalisation of MOPr: log(tau/KA) [6]: 6.2
Phosphorylation (Ser375 of MOPr): Emax [6]: 98%
Phosphorylation (Ser375 of MOPr): log(EC50) [6]: -7.2
Phosphorylation (Ser375 of MOPr): log(tau/KA) [6]: 7.2
β-arrestin 2 recruitment (BRET): Emax [7]: 100
β-arrestin 2 recruitment (BRET): log(EC50) [7]: -7
β-arrestin 2 recruitment (BRET): log(tau/KA) [7]: 7

CC(=O)N[C@@H](Cc1ccc(O)cc1)C(=O)N[C@@H](C(=O)N[C@H](C(=O)N[C@H](Cc1ccccc1)C(N)=O)C(C)C)C(C)C [3d, Aε-YvVf-NH2]
activity in LC neurons (MOPr [8]; 10-30 μM): inactive

Cc1cc(O)cc(C)c1C[C@H](N)C(=O)N[C@@H](C(=O)N[C@H](C(=O)N[C@H](Cc1ccccc1)C(N)=O)C(C)C)C(C)C [peptide 3c, 2,6-dimethyl-L-tyrosine-D-Val-L-Val-D-Phe-NH2]
agonist action in AtT20 cells (MOPr [3]): potent partial opioid agonist
internalisation signal in GRK2 positive cells (MOPr [4]): clear internalisation signals
agonist action on GIRK current in LC neurons (MOPr [8]; compared with morphine): agonist with potency greater than morphine
peak effect after intrathecal injection (C57BL/6 mice; hotplate, 5 nmol/mouse intrathecal): 41±9 % MPE
nociception in the hotplate test, intravenous (C57BL/6 mice; i.v. 50 mg/kg, versus vehicle): failed to inhibit nociception
nociception in the hotplate test, subcutaneous (C57BL/6 mice; s.c. 100 mg/kg, versus vehicle): failed to inhibit nociception

H-FVVF-NH2 (peptide)
% inhibition of forskolin-stimulate cAMP formation in hMOPr HEK cells (10 um) [9]: 19%

endomorphin-2
Phosphorylation Emax (MOPr [1]): 98 ± 2%
β-arrestin 2 recruitment Emax (MOPr [5]; BRET): 100 ± 3
β-arrestin 2 recruitment log(tau/KA) (MOPr [5]; operational model fit): 7.0 ± 0.06
GIRK (80% knockdown) log(tau/KA) (mouse MOPr (mMOPr)): 7.5 ± 0.04
Internalisation Emax (MOPr [2]): 94 ± 3%
Internalisation log(tau/KA) (MOPr [2]): 6.2 ± 0.05
MOPr internalisation (MOPr [2]): robust internalisation

DAMGO ([D-Ala^2, N-MePhe^4, Gly^5-ol]-enkephalin) (peptide)
% inhibition of forskolin-stimulate cAMP formation in hMOPr HEK cells (10 um) [9]: 94%

COc1ccsc1CNCC[C@@]1(c2ccccn2)CCOC2(CCCC2)C1 [oliceridine]
internalisation signal in GRK2 positive cells (MOPr [4]): clear internalisation signals
GGIRK maximal response / intrinsic efficacy (mouse MOPr (mMOPr)): significantly less efficaciously than either morphine or bilorphin
GIRK (80% knockdown) Emax (mouse MOPr (mMOPr); AtT20 mMOPr cells after β-CNA, relative to somatostatin): 0.33 ± 0.01
GIRK (80% knockdown) log(tau/KA) (mouse MOPr (mMOPr)): 7.2 ± 0.08
Internalisation Emax (MOPr [2]; 30 min agonist, met-enkephalin defined as 100%): No activity

YVVF (D-Val at 2; D-Phe at 4; C-terminal amide, also called 3b; peptide 3b) [H-YvVf-NH2 (L-Tyr-D-Val-L-Val-D-Phe-NH2)]
Ki [10]: 93 nM
fold increase of affinity over Bilaid C (3a) [11]: 2 fold

Ac-Y[dV]V[dF]-NH2 [Ac-YvVf-NH2]
Agonist potency in LC neurons EC50 [12]: > 10000 nM

H-YVVF-OH [H-YVVF-OH]
Agonist potency in LC neurons EC50 [12]: > 10000 nM

H-YVVF-NH2 [H-YVVF-NH2]
Agonist potency in LC neurons EC50 [12]: > 10000 nM

FVVF (D-Val at 2; D-Phe at 4; C-terminal amide, also called 1e; peptide 1e) [H-FvVf-NH2 (L-Phe-D-Val-L-Val-D-Phe-NH2)]
% inhibition of forskolin-stimulate cAMP formation in hMOPr HEK cells (10 um) [13]: 47%
Ki [10]: 750 nM
fold improvement of affinity over Bilaid A (1a) [11]: 4 fold
